Values of other authors, collected in patent publication US4686282A, “Immunotherapeutic polypeptide agents which block immune complex binding to immunoglobulin Fc receptors” (Immunetech, Inc., priority 1983, dated 1987).
Ends that are not written are not given here.

Legend:
[1] = tested on: local cutaneous allergic reaction (Prausnitz-Kustner); details: Hamburger 1975
[2] = humans, injection by the subcutaneous route
[3] = molecular target: T1, IgE Fc receptor of human basophils (Homo sapiens, UniProt P12319); details: Plummer et al. 1983
T1 construct: host or cells: human basophils
T1 sequence (P12319 26-257): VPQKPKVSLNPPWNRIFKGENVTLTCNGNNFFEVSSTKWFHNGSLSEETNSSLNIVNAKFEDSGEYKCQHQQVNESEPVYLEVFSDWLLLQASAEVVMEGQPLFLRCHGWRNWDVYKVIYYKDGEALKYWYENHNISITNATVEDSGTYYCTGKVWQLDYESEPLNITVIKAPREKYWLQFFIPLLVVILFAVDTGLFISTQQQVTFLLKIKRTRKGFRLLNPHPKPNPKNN
T1 sequence (Q01362 1-244 partner): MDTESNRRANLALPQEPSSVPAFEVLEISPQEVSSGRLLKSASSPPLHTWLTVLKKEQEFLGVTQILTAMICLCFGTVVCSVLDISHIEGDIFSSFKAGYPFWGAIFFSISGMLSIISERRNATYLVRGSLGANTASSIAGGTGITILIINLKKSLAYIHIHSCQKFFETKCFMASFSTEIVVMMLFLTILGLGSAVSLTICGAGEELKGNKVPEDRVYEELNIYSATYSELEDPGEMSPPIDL
T1 sequence (P30273 19-86 partner): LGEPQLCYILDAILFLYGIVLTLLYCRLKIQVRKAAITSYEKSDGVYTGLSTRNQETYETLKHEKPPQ

[4] = tested on: human monocyte IgG Fc receptors
[5] = tested on: granulocytes, monocytes and macrophages; details: in vitro; literature
C1 = C1 (Homo sapiens, UniProt P02745+P02746+P02747); details: compared with intact monomeric IgG; Prystowsky et al. 1981, Lukas et al. 1981
[6] = tested on: human and rodent mast cells; details: Stanworth et al. 1979
lymphocytes = details: Morgan, Huguli and Weigle 1982

Sequence of C1 (P02745 23-245): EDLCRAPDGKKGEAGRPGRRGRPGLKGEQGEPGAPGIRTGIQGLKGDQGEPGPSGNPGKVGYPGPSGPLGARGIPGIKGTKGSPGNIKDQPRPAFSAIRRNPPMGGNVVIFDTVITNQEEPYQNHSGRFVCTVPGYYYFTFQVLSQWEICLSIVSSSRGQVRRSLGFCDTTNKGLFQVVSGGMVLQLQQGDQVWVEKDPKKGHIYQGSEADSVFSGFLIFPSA
Sequence of C1 (P02746 28-253): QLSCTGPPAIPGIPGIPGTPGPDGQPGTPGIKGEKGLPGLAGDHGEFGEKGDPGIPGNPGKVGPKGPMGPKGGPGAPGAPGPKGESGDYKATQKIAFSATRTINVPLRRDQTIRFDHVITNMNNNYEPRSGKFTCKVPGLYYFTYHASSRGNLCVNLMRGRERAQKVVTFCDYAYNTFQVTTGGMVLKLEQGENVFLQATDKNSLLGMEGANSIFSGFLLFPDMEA
Sequence of C1 (P02747 29-245): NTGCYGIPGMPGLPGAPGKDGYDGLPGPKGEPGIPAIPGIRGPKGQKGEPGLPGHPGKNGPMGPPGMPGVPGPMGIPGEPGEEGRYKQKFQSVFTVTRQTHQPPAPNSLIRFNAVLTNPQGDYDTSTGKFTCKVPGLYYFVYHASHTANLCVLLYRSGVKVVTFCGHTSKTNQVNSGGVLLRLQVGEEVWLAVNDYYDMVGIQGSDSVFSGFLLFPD
Sequence of C1 (P00736 18-705 partner): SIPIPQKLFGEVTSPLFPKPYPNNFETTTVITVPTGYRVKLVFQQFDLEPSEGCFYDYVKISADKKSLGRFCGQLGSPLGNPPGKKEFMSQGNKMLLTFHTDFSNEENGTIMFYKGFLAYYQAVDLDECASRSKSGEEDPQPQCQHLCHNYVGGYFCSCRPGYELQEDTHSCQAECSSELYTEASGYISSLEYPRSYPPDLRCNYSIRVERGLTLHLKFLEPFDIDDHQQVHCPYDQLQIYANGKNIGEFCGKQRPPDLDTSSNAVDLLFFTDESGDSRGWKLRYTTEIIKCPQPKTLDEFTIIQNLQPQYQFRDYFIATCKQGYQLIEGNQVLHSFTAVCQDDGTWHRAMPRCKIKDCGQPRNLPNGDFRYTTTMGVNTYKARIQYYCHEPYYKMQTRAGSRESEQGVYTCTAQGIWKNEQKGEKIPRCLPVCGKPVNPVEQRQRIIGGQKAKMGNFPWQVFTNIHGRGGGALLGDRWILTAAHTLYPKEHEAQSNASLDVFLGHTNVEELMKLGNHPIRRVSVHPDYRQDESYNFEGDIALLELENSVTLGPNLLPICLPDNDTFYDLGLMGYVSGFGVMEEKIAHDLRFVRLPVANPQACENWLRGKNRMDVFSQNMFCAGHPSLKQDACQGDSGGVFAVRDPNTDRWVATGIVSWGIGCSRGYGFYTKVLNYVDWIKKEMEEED
Sequence of C1 (P09871 16-688 partner): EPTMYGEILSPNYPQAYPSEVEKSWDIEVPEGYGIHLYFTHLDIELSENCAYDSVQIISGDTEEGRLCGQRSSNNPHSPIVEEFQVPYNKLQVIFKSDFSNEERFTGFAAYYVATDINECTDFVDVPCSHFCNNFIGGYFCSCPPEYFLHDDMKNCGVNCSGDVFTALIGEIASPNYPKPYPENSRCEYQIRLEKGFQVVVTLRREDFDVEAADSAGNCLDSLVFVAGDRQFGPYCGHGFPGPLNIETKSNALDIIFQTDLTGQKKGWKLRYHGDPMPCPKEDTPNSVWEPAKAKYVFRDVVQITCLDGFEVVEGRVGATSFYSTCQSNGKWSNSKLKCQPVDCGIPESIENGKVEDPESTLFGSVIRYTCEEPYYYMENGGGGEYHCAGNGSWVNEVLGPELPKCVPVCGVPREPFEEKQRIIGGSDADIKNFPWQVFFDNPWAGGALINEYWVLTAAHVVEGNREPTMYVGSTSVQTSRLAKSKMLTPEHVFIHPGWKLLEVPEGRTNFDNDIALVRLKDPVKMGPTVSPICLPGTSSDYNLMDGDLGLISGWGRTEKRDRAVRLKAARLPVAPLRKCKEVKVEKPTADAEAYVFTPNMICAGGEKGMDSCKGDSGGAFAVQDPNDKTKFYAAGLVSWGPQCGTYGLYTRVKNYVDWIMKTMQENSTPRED

## Asp-Ser-Asp-Pro-Arg (DSDPR; printed: Asp-Ser-Asp-Pro-Arg)
[1]
  inhibit a local cutaneous allergic reaction (Prausnitz-Kustner): approximately 90%
[2]
  inhibit systemic allergic disease: inhibit systemic allergic disease
[3]
  block human IgE binding to basophil IgE Fc receptors: up to 70%

## Thr-Lys-Pro-Arg (TKPR; printed: Thr-Lys-Pro-Arg) [Tuftsin]
[4]; Ratcliffe and Stanworth 1982 and ourselves
  inhibits human IgG binding to human monocyte IgG Fc receptors: competitively inhibits
[5]
  phagocytosis stimulating ability: active at nanomolar concentrations
C1
  inhibitors of C1-mediated hemolysis: less active

## PRKTKGSGFFVF
[6]
  degranulation of human and rodent mast cells: able to cause degranulation

## Val-Gln-Val-His-Asn-Ala-Lys-Thr-Lys-Pro-Arg-OH (VQVHNAKTKPR-OH)
C1
  inhibitors of C1-mediated hemolysis: approximately as active as inhibitors as intact monomeric IgG

## QYDSTYR
[4]; Ratcliffe and Stanworth 1982
  block IgG binding to human monocyte IgG Fc receptors: slightly block

## GVQVHNAKTK
C1
  inhibitors of C1-mediated hemolysis: approximately as active as inhibitors as intact monomeric IgG

## Ac-Phe-Asn-Trp-Tyr-Val (Ac-FNWYV)
C1
  inhibitors of C1-mediated hemolysis: less active

## FNWYVDGVQVHNAKTK
C1
  inhibitors of C1-mediated hemolysis: less active

## TISKAKGQPREPQVYTLPSREEM
lymphocytes
  nonspecific activation of lymphocytes: ability to nonspecifically activate lymphocytes
